Measured values published in patent US20240043699A1, “DISPERSION AND COATINGS DERIVED THEREFROM” (UNIVERSITY OF MASSACHUSETTS, priority 2022, published 2024).

Assay: Krafft Temperature from electrical conductivity in water at various temperatures
Format: physicochemical
Details: electrical conductivity vs. temperature, sulfate
Method: In some embodiments, the surfactants useful for the present disclosure can have a high Krafft temperature. For example, exemplary surfactants can have a Krafft temperature of at least 50° C. […] Krafft temperature can be determined by, for example, measuring electrical conductivity in water at various temperatures, where the Krafft temperature is taken to be the inflection point when conductivity is plotted against temperature.
Krafft Temperature, the temperature at which an ionic surfactant begins to form micelles in water, is marked by a significant increase in solubility and therefore electrical conductivity for ionic surfactants. Electrical conductivities of the HMW Surfactant species were measured in water at various temperatures to determine Krafft Temperature.

Krafft Temperature (listed as SDS): 15 °C
Krafft Temperature: roughly 15 °C
SMILES: CCCCCCCCCCCCOS(=O)(=O)[O-].[Na+] [sodium dodecyl sulfate]
